Key:
Conditions in all cases: 10 μM free compound
AMPKa1 = AMPKa1 (Homo sapiens, UniProt Q13131); assay: Kinobeads competition binding, HL60 cell lysate; parameters: endogenous in cells; host or cells: HL60 cells
Description: (§1) To one aliquot of cell lysate 10 μM of the free compound (FIG. 3, CZC31326) was added and allowed to bind to proteins in the lysate. Then the affinity matrix with the immobilized compound (Example 1) was added to capture proteins that were not interacting with the previously added free compound. Beads were separated from the lysate and bead bound proteins were eluted in SDS sample buffer and subsequently separated by SDS-Polyacrylamide gel electrophoresis (FIG. 4). Suitable gel bands were cut out and subjected to in-gel proteolytic digestion with trypsin. The second lysate aliquot was processed identically, however no free compound was added (DMSO solvent control). Peptides originating from samples 1 and 2 were labeled with iTRAQ reagents (iTRAQ 114 and iTRAQ 117) and the combined samples were analyzed with a nano-flow liquid chromatography system coupled online to a tandem mass spectrometer (LC-MS/MS) experiment followed by iTRAQ reporter ion quantification in the MS/MS spectra (Ross et al., 2004. Mol. Cell. Proteomics 3(12):1154-1169). Further experimental protocols can be found in WO2006/134056 and a previous publication (Bantscheff et al., 2007. Nature Biotechnology 25, 1035-1044). Sepharose-beads with the immobilized compound (100 μl beads per pull-down experiment) were equilibrated in lysis buffer and incubated with a cell lysate sample containing 50 mg of protein on an end-over-end shaker (Roto Shake Genie, Scientific Industries Inc.) for 2 hours at 4° C. Beads were collected, transferred to Mobicol-columns (MoBiTech 10055) and washed with 10 ml lysis buffer containing 0.4% NP40 detergent, followed by 5 ml lysis buffer containing 0.2% detergent. To elute bound proteins, 60 μl 2×SDS sample buffer was added to the column. The column was incubated for 30 minutes at 50° C. and the eluate was transferred to a siliconized microfuge tube by centrifugation. Proteins were then alkylated with 108 mM iodoacetamid. Proteins were then separated by SDS-Polyacrylamide electrophoresis (SDS-PAGE). The peptide extracts of samples treated with 10 μM of free compound (CZC31326) and the solvent control (0.5% DMSO) were treated with different variants of the isobaric tagging reagent (iTRAQ Reagents Multiplex Kit, part number 4352135, Applied Biosystems, Foster City, Calif., USA). The iTRAQ reagents are a set of multiplexed, amine-specific, stable isotope reagents that can label peptides on amino groups in up to four different biological samples enabling simultaneous identification and quantitation of peptides. The iTRAQ reagents were used according to instructions provided by the manufacturer. The samples were resuspended in 10 μl 50 mM TEAB solution, pH 8.5 and 10 μl ethanol were added. The iTRAQ reagent was dissolved in 120 μl ethanol and 10 μl of reagent solution were added to the sample. The labeling reaction was performed at room temperature for one hour on a horizontal shaker and stopped by adding 5 μl of 100 mM TEAB and 100 mM glycine in water. The two labeled sampled were then combined, dried in a vacuum centrifuge and resuspended in 10 μl of 0.1% formic acid in water. Relative protein quantitation was performed using peak areas of iTRAQ reporter ion signals essentially as described in an earlier publication (Bantscheff et al., 2007. Nature Biotechnology 25, 1035-1044).

AurA = target: T1, AurA (Homo sapiens, UniProt O14965); assay: Kinobeads competition binding, HL60 cell lysate; parameters: endogenous in cells; host or cells: HL60 cells
T1 sequence (O14965 1-403): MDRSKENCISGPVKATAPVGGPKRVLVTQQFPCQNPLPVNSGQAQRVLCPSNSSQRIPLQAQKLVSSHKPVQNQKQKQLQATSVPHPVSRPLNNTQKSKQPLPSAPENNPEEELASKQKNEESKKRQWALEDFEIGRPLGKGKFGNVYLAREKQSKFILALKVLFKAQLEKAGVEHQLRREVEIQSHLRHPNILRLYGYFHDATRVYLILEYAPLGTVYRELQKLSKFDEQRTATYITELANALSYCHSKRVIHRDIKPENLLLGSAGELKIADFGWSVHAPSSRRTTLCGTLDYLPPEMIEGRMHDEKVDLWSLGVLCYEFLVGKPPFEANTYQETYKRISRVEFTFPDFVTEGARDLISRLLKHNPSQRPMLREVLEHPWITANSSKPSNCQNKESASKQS
Description: as §1

BIKE = BIKE (Homo sapiens, UniProt Q9NSY1); assay: Kinobeads competition binding, HL60 cell lysate; parameters: endogenous in cells; host or cells: HL60 cells
Chain of BIKE (Q9NSY1 whole entry): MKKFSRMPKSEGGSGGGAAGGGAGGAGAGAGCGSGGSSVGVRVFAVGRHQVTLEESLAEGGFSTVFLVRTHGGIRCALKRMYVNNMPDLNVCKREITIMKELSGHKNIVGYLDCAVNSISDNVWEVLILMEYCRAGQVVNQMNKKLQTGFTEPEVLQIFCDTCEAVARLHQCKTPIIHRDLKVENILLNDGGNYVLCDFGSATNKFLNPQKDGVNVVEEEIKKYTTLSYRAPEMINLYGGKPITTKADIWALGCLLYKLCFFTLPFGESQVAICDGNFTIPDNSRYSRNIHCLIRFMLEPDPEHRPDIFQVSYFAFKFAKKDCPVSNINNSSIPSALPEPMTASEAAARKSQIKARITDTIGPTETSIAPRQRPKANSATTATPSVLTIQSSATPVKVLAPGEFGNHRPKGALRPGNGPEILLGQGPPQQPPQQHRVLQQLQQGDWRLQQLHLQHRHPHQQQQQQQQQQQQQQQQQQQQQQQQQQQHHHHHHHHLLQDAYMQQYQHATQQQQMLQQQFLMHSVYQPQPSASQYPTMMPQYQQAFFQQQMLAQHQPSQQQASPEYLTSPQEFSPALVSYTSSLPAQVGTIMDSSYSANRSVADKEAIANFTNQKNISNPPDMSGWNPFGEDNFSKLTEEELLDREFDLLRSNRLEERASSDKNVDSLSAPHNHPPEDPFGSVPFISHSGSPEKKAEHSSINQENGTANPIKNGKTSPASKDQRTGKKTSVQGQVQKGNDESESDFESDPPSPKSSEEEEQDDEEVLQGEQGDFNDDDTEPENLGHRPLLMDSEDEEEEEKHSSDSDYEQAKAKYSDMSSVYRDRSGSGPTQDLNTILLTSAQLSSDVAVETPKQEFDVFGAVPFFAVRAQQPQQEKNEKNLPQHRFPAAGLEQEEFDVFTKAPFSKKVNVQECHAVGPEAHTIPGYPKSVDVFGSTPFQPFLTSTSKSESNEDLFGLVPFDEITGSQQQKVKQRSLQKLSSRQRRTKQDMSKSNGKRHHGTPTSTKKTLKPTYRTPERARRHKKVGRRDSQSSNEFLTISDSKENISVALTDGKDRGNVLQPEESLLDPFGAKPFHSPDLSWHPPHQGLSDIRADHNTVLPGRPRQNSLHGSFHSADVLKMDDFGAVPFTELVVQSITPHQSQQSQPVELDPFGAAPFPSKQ
Description: as §1

CDK5 = CDK5 (Homo sapiens, UniProt Q00535); assay: Kinobeads competition binding, HL60 cell lysate; parameters: endogenous in cells; host or cells: HL60 cells
Chain of CDK5 (Q00535 whole entry): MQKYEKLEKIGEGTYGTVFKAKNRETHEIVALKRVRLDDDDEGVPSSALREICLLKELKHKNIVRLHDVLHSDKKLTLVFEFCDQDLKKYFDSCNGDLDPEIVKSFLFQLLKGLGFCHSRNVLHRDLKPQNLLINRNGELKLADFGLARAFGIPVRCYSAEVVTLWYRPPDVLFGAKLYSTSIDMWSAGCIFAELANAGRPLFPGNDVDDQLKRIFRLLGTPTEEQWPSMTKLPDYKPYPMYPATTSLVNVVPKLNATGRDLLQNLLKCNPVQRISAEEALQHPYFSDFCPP
Description: as §1

CHK1 = CHK1 (Homo sapiens, UniProt O14757); assay: Kinobeads competition binding, HL60 cell lysate; parameters: endogenous in cells; host or cells: HL60 cells
Chain of CHK1 (O14757 whole entry): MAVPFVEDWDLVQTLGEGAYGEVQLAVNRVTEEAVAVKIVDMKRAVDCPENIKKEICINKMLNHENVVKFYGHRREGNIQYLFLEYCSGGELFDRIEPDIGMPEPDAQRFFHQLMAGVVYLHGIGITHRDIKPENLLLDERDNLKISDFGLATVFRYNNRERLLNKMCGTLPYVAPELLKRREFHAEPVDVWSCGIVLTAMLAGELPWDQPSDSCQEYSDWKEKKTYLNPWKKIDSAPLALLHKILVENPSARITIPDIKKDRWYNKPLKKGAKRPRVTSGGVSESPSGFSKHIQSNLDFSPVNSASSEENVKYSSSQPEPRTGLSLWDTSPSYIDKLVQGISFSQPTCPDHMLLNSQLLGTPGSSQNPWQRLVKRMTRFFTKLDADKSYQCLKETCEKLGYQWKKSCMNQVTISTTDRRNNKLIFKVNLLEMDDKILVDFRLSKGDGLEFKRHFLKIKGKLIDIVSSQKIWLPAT
Description: as §1

CaMK2g = CaMK2g (Homo sapiens, UniProt Q13555); assay: Kinobeads competition binding, HL60 cell lysate; parameters: endogenous in cells; host or cells: HL60 cells
Chain of CaMK2g (Q13555 whole entry): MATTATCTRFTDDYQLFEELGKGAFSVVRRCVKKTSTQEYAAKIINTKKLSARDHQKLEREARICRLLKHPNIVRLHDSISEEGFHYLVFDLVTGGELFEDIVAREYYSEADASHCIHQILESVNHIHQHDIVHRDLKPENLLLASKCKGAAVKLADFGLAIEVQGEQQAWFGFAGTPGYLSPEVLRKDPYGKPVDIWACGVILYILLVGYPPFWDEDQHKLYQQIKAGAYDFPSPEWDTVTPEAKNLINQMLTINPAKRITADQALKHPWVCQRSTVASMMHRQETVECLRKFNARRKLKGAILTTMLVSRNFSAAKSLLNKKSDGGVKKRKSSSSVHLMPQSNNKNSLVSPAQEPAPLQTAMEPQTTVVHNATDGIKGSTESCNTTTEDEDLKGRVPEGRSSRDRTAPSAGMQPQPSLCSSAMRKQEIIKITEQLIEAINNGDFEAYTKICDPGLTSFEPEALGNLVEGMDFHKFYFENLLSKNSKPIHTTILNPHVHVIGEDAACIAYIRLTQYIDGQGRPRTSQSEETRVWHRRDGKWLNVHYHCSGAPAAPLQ
Description: as §1

QIK = QIK (Homo sapiens, UniProt Q9H0K1); assay: Kinobeads competition binding, HL60 cell lysate; parameters: endogenous in cells; host or cells: HL60 cells
Chain of QIK (Q9H0K1 whole entry): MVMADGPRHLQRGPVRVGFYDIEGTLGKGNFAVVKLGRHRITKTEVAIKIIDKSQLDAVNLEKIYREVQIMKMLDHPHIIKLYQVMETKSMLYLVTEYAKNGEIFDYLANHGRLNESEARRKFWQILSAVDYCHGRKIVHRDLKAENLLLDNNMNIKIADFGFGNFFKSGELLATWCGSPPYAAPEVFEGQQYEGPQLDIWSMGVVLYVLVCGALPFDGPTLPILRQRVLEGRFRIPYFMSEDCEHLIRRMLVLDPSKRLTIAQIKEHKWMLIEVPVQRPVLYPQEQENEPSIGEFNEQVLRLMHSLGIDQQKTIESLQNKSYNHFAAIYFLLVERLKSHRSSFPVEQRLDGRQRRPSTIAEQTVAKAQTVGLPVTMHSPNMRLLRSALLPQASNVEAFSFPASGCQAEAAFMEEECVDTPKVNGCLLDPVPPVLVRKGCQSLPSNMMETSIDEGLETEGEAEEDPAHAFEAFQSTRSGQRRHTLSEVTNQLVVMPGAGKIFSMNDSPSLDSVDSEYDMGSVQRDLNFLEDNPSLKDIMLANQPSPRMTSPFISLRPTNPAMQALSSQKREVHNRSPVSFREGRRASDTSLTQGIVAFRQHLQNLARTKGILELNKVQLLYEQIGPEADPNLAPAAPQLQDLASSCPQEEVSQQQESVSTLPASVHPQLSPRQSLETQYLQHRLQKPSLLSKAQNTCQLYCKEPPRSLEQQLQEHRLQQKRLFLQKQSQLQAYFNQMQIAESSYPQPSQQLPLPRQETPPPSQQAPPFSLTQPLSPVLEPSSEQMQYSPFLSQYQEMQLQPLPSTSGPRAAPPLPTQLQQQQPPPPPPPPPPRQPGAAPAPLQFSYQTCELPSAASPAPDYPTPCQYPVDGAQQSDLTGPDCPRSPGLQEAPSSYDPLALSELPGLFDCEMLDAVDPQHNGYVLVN
Description: as §1

RSK3 = RSK3 (Homo sapiens, UniProt Q15349); assay: Kinobeads competition binding, HL60 cell lysate; parameters: endogenous in cells; host or cells: HL60 cells
Chain of RSK3 (Q15349 whole entry): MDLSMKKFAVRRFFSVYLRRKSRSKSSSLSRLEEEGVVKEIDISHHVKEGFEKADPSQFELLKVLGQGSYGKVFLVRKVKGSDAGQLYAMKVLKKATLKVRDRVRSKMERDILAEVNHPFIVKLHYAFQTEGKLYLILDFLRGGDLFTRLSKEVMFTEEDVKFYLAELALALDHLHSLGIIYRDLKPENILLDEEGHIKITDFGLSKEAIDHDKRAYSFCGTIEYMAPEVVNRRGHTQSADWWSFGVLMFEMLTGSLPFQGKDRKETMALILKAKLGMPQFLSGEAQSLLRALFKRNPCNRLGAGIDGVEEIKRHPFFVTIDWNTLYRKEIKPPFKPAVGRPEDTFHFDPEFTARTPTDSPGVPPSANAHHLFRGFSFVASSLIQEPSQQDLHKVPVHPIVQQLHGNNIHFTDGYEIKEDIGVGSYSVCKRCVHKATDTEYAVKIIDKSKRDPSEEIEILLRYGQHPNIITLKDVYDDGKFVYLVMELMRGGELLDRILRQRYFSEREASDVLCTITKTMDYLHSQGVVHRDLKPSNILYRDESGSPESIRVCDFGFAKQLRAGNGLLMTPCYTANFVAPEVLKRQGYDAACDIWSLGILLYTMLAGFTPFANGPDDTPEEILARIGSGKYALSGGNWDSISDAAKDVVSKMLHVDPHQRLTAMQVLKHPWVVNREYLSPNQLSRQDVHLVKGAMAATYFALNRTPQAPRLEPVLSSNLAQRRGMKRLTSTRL
Description: as §1

JNK1 = JNK1 (Homo sapiens, UniProt P45983); assay: Kinobeads competition binding, HeLa Placenta lysate mix; parameters: Identified kinases from HeLa Placenta lysate mix with CZC31326; endogenous in cells; host or cells: HeLa cell lysate mixed with placenta tissue lysate
Chain of JNK1 (P45983 whole entry): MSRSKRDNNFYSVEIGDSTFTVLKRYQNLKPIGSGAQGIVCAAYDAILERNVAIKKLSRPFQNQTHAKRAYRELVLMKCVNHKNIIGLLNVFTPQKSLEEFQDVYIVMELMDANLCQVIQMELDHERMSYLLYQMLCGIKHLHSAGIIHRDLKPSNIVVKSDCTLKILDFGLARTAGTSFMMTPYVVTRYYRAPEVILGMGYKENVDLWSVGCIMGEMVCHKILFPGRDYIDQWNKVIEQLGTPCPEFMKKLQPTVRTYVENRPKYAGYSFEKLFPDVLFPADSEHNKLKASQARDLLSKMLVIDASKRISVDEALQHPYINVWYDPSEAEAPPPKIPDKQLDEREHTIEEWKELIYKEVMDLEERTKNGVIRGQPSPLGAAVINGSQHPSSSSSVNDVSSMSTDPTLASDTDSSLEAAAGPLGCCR
Description: To one aliquot of cell lysate 10 μM of the free compound (FIG. 3, CZC31326) was added and allowed to bind to proteins in the lysate. Then the affinity matrix with the immobilized compound was added to capture proteins that were not interacting with the previously added free compound. Beads were separated from the lysate and bead bound proteins were eluted in SDS sample buffer and subsequently separated by SDS-Polyacrylamide gel electrophoresis (FIG. 10). Suitable gel bands were cut out and subjected to in-gel proteolytic digestion with trypsin. The second lysate aliquot was processed identically, however no free compound was added (DMSO solvent control). Peptides originating from samples 1 and 2 were labeled with iTRAQ reagents (iTRAQ 114 and iTRAQ 117) and the combined samples were analyzed with a nano-flow liquid chromatography system coupled online to a tandem mass spectrometer (LC-MS/MS) experiment followed by iTRAQ reporter ion quantification in the MS/MS spectra as described in Example 2.

CS(=O)(=O)Nc1ccccc1Nc1nc(Nc2cccc(OCCN)c2)ncc1Cl [CZC31326, N-(2-(2-(3-(2-aminoethoxy)phenylamino)-5-chloropyrimidin-4-ylamino)phenyl)methanesulfonamide]
inhibition at 10 µM (AMPKa1): 97.7%
inhibition at 10 µM (AurA): 96.6%
inhibition at 10 µM (BIKE): 97.6%
inhibition at 10 µM (CDK5): 95.2%
Competition % (CHK1): 95.7%
inhibition at 10 µM (CaMK2g): 90.4%
inhibition at 10 µM (QIK): 94.2%
inhibition at 10 µM (RSK3): 96.9%
Competition % (JNK1): 85%

From patent US20120270237A9, “METHODS FOR THE IDENTIFICATION OF KINASE INTERACTING MOLECULES AND FOR THE PURIFICATION OF KINASE PROTEINS” (Cellzone AG, priority 2009, published 2012)
